Experimental data from PubChem BioAssay AID2060601 (Molecular Pharmacology Branch, DTP, NCI, 2025).
pIC50: −log10 of the molar value.

Tested on: 874868-142-R-J2-PDC complex spheroids, growth % test/control
Assay: Anticancer human tumor 874868-142-R-J2-PDC patient-derived head and neck squamous carcinoma cell line growth inhibition [CLK]
Settings: for pIC50: curve of first compound; for viability, T/C: stronger effect = lower value
Method in brief: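 Multi-cell-type spheroids combined patient-derived tumor cells with HUVEC endothelial cells and human mesenchymal stem cells. Paired agents were dosed in half-log steps down from about clinical Cmax, or from 10 microM where Cmax was unknown.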

[1] = second compound 0.0316 µM, first compound 0.0316 µM
[2] = second compound 0.0316 µM, first compound 0.1 µM
[3] = second compound 0.0316 µM, first compound 0.316 µM
[4] = second compound 0.0316 µM, first compound 1 µM
[5] = second compound 0.0316 µM, first compound 3.16 µM
[6] = second compound 0.0316 µM, first compound 10 µM
[7] = second compound 0.1 µM, first compound 0.0316 µM
[8] = second compound 0.1 µM, first compound 0.1 µM
[9] = second compound 0.1 µM, first compound 0.316 µM
[10] = second compound 0.1 µM, first compound 1 µM
[11] = second compound 0.1 µM, first compound 3.16 µM
[12] = second compound 0.1 µM, first compound 10 µM
[13] = second compound 0.316 µM, first compound 0.0316 µM
[14] = second compound 0.316 µM, first compound 0.1 µM
[15] = second compound 0.316 µM, first compound 0.316 µM
[16] = second compound 0.316 µM, first compound 1 µM
[17] = second compound 0.316 µM, first compound 3.16 µM
[18] = second compound 0.316 µM, first compound 10 µM
[19] = second compound 1 µM, first compound 0.0316 µM
[20] = second compound 1 µM, first compound 0.1 µM
[21] = second compound 1 µM, first compound 0.316 µM
[22] = second compound 1 µM, first compound 1 µM
[23] = second compound 1 µM, first compound 3.16 µM
[24] = second compound 1 µM, first compound 10 µM
[25] = second compound 3.16 µM, first compound 0.0316 µM
[26] = second compound 3.16 µM, first compound 0.1 µM
[27] = second compound 3.16 µM, first compound 0.316 µM
[28] = second compound 3.16 µM, first compound 1 µM
[29] = second compound 3.16 µM, first compound 3.16 µM
[30] = second compound 3.16 µM, first compound 10 µM
[31] = second compound 10 µM, first compound 0.0316 µM
[32] = second compound 10 µM, first compound 0.1 µM
[33] = second compound 10 µM, first compound 0.316 µM
[34] = second compound 10 µM, first compound 1 µM
[35] = second compound 10 µM, first compound 3.16 µM
[36] = second compound 10 µM, first compound 10 µM
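Further: spheroids exposed to the compounds for 7 days.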
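Wherever viability, T/C is given: 100% = DMSO vehicle control viability.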

For `Nc1ccn(C2OC(CO)C(O)C2(F)F)c(=O)n1` (centres undefined) + CN1CCN(c2cc(C(=O)Nc3cc4cc(-c5cnn(C)c5)ccc4cn3)ccn2)CC1, the pIC50 (second compound 0.0316 µM) was 6.31, the pIC50 (second compound 0.1 µM) was 6.33 and the pIC50 (second compound 0.316 µM) was > 7.50. For the same compound, the pIC50 (second compound 1 µM) was > 7.50, the pIC50 (second compound 3.16 µM) was > 7.50 and the pIC50 (second compound 10 µM) was > 7.50. For the same compound, the viability, T/C [1] was 80.5%, the viability, T/C [2] was 72.9% and the viability, T/C [3] was 58.7%. The viability, T/C [4] was 37.6%, the viability, T/C [5] was 20.5% and the viability, T/C [6] was 26.1%. For the same compound, the viability, T/C [7] was 62.2%, the viability, T/C [8] was 70.5% and the viability, T/C [9] was 61.4%. It also gave a viability, T/C [10] of 26.8%, a viability, T/C [11] of 19.9% and a viability, T/C [12] of 24.1%. It also gave a viability, T/C [13] of 14.3%, a viability, T/C [14] of 14.6% and a viability, T/C [15] of 11.8%. For the same compound, the viability, T/C [16] was 9.83%, the viability, T/C [17] was 11.6% and the viability, T/C [18] was 11.8%. For the same compound, the viability, T/C [19] was 0.24%, the viability, T/C [20] was 0.22% and the viability, T/C [21] was 0.33%. The viability, T/C [22] was 0.18%, the viability, T/C [23] was 0.28% and the viability, T/C [24] was 0.2%. For the same compound, the viability, T/C [25] was 0.26%, the viability, T/C [26] was 0.23% and the viability, T/C [27] was 0.16%. For the same compound, the viability, T/C [28] was 0.18%, the viability, T/C [29] was 0.19% and the viability, T/C [30] was 0.43%. It also gave a viability, T/C [31] of 0.14%, a viability, T/C [32] of 0.19% and a viability, T/C [33] of 0.23%. It also gave a viability, T/C [34] of 0.2%, a viability, T/C [35] of 0.25% and a viability, T/C [36] of 1.04%.

With `O=c1[nH]cc(F)c(=O)[nH]1` + CN1CCN(c2cc(C(=O)Nc3cc4cc(-c5cnn(C)c5)ccc4cn3)ccn2)CC1 the pIC50 (second compound 0.0316 µM) was 5.63, the pIC50 (second compound 0.1 µM) was 6.18 and the pIC50 (second compound 0.316 µM) was > 7.50. The pIC50 (second compound 1 µM) was > 7.50, the pIC50 (second compound 3.16 µM) was > 7.50 and the pIC50 (second compound 10 µM) was > 7.50. The viability, T/C [1] was 99.7%, the viability, T/C [2] was 74.5% and the viability, T/C [3] was 83.8%. It also gave a viability, T/C [4] of 70.8%, a viability, T/C [5] of 41.6% and a viability, T/C [6] of 37%. The viability, T/C [7] was 66.7%, the viability, T/C [8] was 79% and the viability, T/C [9] was 62.4%. It also gave a viability, T/C [10] of 43.7%, a viability, T/C [11] of 24.8% and a viability, T/C [12] of 31%. The viability, T/C [13] was 18.2%, the viability, T/C [14] was 17.2% and the viability, T/C [15] was 12.4%. The viability, T/C [16] was 10.2%, the viability, T/C [17] was 12.2% and the viability, T/C [18] was 10.7%. For the same compound, the viability, T/C [19] was 0.31%, the viability, T/C [20] was 0.25% and the viability, T/C [21] was 0.25%. The viability, T/C [22] was 0.29%, the viability, T/C [23] was 0.14% and the viability, T/C [24] was 0.21%. It also gave a viability, T/C [25] of 0.18%, a viability, T/C [26] of 0.21% and a viability, T/C [27] of 0.22%. It also gave a viability, T/C [28] of 0.18%, a viability, T/C [29] of 0.5% and a viability, T/C [30] of 0.21%. The viability, T/C [31] was 0.08%, the viability, T/C [32] was 0.14% and the viability, T/C [33] was 0.14%. For the same compound, the viability, T/C [34] was 0.15%, the viability, T/C [35] was 0.29% and the viability, T/C [36] was 0.17%.
